One assay addresses T1, AXL (Homo sapiens, UniProt P30530).
T1 construct: purchased Eurofins Discovery (Kinase Profiler service)
T1 sequence (P30530 26-894): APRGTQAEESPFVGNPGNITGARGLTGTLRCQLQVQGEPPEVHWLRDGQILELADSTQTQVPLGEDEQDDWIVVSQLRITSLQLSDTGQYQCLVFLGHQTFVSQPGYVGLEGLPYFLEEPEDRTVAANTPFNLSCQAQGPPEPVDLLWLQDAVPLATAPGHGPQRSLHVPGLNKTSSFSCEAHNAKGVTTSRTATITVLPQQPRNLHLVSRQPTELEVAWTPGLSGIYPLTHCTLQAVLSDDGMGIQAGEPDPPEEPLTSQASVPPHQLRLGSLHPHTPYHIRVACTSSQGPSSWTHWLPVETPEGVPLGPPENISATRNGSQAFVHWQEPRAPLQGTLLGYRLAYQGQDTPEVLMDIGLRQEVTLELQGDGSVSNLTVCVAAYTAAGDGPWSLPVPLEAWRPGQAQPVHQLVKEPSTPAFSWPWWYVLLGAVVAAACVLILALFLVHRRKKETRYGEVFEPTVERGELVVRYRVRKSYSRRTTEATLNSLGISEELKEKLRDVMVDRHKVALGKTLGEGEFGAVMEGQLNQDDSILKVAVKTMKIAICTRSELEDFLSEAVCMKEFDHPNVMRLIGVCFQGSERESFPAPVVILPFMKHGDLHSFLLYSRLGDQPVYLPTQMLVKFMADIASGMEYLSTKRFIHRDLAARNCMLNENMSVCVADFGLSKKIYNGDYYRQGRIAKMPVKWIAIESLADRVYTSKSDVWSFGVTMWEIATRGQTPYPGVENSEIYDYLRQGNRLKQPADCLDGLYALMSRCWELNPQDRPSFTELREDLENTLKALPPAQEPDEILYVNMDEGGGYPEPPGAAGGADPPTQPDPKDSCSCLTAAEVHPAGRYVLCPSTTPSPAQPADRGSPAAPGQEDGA
Briefly: Filter-binding radiometric kinase activity assay (KinaseProfiler, Eurofins). Type of assay: biochemical. The following applies: 1 µM compound; read-out: % Residual enzymatic activity at 1 µM AXL. The protocol:
(§1) Filter-binding radiometric kinase activity assay (Kinase Profiler™) from Eurofins Discovery was used to determine the % of inhibition and/or IC50 values. […] The reaction is initiated by the addition of the Mg/ATP mixture. After incubation for 40 minutes at room temperature, the reaction is stopped by the addition of phosphoric acid to a concentration of 0.5%. 10 µL of the reaction is then spotted onto a P30 filter mat and washed four times for 4 minutes in 0.425% phosphoric acid and once in methanol prior to drying and scintillation counting. The IC50 values were derived by fitting a sigmoidal dose-response curve to a plot of assay readout over inhibitor concentration. All fits were computed with the GraphPad Prism Software (San Diego, CA, United States of America). Ki values were derived from IC5o values using Cheng Prusoff equation (Cheng Y et al., Biochem Pharmacol 22(23):3099-3108, 1973).

Another assay concerns the target T2, MET (Homo sapiens, UniProt P08581).
T2 construct: purchased Eurofins Discovery (Kinase Profiler service)
The assay is described as above. It is filed as biochemical. The note with it: 1 µM compound; read-out: % Residual enzymatic activity at 1 µM MET. The protocol:
as §1

Another assay concerns the target T3, Mer (Homo sapiens, UniProt Q12866).
T3 construct: purchased Eurofins Discovery (Kinase Profiler service)
T3 sequence (Q12866 21-999): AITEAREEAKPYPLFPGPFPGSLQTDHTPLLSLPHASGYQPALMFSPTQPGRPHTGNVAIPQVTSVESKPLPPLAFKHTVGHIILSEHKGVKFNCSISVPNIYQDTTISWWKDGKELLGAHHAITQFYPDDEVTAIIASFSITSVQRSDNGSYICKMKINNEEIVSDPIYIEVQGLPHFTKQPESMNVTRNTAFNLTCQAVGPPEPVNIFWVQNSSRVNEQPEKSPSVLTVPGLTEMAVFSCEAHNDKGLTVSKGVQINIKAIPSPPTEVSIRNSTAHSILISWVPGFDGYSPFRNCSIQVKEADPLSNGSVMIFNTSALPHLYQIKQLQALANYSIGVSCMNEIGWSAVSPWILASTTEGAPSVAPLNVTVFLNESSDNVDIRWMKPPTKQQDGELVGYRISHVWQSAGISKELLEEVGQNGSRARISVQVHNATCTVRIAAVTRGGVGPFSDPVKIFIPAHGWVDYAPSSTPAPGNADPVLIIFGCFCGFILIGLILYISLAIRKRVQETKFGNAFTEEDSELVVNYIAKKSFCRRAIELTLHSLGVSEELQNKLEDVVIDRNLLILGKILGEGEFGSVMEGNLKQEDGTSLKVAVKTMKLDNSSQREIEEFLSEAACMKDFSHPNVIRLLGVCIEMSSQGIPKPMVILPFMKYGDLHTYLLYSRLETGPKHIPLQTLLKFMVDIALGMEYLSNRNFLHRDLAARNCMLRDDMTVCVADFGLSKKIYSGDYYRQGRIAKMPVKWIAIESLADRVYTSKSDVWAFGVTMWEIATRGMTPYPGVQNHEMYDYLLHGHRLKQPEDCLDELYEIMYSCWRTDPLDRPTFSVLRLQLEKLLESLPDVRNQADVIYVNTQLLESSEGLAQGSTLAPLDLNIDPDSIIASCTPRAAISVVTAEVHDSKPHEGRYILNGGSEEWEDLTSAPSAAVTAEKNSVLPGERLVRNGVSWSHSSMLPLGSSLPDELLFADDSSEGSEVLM
The assay is described as above. Type of assay: biochemical. The note with it: 1 µM compound; read-out: % Residual enzymatic activity at 1 µM Mer. The protocol: as §1

In a further assay the target is T4, TYRO3 (Homo sapiens, UniProt Q06418).
T4 construct: purchased Eurofins Discovery (Kinase Profiler service)
T4 sequence (Q06418 41-890): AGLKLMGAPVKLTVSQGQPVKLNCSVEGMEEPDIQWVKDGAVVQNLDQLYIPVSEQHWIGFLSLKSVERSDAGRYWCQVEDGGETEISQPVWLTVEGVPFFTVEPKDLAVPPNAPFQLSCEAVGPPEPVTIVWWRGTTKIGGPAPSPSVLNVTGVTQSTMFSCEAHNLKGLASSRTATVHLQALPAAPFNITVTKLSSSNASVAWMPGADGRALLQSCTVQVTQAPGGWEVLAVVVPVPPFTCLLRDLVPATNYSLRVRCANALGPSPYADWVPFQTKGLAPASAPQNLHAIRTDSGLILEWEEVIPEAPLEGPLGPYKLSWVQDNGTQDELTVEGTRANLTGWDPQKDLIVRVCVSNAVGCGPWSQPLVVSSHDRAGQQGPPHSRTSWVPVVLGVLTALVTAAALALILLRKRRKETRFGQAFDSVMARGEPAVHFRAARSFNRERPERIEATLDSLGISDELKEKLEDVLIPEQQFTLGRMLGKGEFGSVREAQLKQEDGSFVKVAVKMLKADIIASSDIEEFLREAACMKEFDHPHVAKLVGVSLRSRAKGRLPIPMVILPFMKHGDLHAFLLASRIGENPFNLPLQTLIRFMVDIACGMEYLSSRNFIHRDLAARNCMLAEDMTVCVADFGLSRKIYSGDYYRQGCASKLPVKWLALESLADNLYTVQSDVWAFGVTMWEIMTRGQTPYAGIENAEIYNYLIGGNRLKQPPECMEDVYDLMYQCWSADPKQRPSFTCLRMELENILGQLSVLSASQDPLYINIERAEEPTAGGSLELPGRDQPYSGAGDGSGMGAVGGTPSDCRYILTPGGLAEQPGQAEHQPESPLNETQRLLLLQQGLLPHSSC
Described as above. Type of assay: biochemical. The following applies: 1 µM compound; read-out: % Residual enzymatic activity at 1 µM TYRO3. The protocol: as §1

For another assay, the system named is FLT3-ITD. Put plainly: ADP Glo Kinase assay. Type of assay: biochemical. The following applies: 1 µM compound. As for the experimental part:
(§2) Inhibition of CDKs and FLT3 were determined using ADP Glo Kinase assays, as previously described in International Patent Publication No WO 2017/020065.

A further assay deals with MV4-11. Put plainly: Proliferation assay (MTT, leukaemia cancer cell line). Type of assay: cell-based. The note with it: Homo sapiens; 1 µM compound, MV4-11 cells. From the text: Compounds from Example 1 were subjected to standard resazurin and MTT assays on solid tumour and leukaemia cancer cell lines, respectively, as previously reported (Wang S et al., J Med Chem 47:1662-1675, 2004 and Diab S et al., CheMedChem 9:962-972, 2014).

A further assay deals with CDK2E (Homo sapiens, UniProt P24941). Briefly: ADP Glo Kinase assay. The note with it: 1 µM compound; read-out: % Residual enzymatic activity at 1 µM CDK2E. It is filed as biochemical. As for the experimental part: as §2
(ADP-Glo turns the ADP formed in a reaction into a luminescent signal.)

The next assay has as its target CDK4D1 (Homo sapiens, UniProt P11802). Briefly: ADP Glo Kinase assay. Type of assay: biochemical. The note with it: 1 µM compound; read-out: % Residual enzymatic activity at 1 µM CDK4D1. As for the experimental part:
as §2

T2 sequence (P08581 25-1390): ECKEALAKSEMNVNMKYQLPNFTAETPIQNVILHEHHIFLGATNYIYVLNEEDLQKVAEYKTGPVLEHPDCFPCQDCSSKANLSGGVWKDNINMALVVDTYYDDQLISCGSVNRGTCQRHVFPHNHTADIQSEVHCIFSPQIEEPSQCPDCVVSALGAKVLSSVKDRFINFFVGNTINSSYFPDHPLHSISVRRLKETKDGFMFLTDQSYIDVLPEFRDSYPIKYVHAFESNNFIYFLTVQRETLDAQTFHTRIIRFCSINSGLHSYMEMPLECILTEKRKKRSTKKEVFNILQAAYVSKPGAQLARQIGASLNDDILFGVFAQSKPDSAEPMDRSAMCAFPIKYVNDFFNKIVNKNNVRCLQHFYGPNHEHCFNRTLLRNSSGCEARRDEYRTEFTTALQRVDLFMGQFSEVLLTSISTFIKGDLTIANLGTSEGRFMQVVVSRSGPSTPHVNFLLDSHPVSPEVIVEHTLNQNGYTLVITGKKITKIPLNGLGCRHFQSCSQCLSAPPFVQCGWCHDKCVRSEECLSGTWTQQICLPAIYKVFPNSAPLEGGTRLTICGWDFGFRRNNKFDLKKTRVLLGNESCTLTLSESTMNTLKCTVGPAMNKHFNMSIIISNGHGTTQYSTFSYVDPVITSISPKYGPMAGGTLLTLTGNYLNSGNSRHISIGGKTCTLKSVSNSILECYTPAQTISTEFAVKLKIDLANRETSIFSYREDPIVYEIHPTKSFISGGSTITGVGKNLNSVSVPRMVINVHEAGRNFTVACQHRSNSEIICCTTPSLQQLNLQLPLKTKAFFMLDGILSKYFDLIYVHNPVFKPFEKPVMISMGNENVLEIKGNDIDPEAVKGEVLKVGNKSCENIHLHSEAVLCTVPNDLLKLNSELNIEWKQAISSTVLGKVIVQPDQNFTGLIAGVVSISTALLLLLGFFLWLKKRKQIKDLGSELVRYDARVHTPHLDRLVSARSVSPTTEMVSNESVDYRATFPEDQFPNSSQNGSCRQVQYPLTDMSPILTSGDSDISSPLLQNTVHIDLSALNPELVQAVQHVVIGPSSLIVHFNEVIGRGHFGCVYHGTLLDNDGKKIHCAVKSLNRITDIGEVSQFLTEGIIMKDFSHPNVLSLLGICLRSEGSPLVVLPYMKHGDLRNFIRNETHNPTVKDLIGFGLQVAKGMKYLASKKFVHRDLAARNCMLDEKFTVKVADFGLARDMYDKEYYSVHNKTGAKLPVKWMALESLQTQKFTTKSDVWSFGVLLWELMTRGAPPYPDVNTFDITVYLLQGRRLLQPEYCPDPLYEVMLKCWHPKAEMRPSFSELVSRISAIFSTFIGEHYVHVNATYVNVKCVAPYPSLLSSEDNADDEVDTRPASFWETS
Sequence of CDK4D1 (P11802 whole entry): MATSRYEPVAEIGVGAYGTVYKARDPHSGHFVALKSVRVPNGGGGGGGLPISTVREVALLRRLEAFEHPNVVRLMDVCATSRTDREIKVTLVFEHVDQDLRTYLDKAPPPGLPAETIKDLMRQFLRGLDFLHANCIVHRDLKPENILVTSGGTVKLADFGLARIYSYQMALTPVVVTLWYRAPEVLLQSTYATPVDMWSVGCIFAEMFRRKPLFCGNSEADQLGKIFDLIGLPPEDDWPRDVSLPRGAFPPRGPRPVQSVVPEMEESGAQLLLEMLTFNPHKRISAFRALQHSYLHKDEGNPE
Sequence of CDK4D1 (P24385 whole entry partner): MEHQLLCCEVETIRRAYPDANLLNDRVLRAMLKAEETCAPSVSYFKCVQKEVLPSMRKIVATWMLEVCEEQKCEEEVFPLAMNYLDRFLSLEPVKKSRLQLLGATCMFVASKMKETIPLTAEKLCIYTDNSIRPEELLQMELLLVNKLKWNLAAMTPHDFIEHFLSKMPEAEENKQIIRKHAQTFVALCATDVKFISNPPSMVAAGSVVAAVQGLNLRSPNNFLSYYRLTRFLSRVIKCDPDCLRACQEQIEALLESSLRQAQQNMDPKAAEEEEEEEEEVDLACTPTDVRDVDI

As to `Nc1ncnc(Oc2cc(F)c(NC(=O)c3cccn(-c4ccc(F)cc4)c3=O)cc2F)c1Cl` [Cmpd 21, N-(4-((6-amino-5-chloropyrimidin-4-yl)oxy)-2,5-difluorophenyl)-1-(4-fluorophenyl)-2-oxo-1,2-dihydropyridine-3-carboxamide], the remaining activity at 1 µM turned out to be 3% at AXL, 5% at MET, 30% on Mer and 3% on TYRO3. Moreover, the “% Residual enzymatic activity at 1 µM FLT3-ITD” value (“% Residual enzymatic activity” for short) in the assay with FLT3-ITD is given as 22%. The compound further showed an activity at 1 µM in the assay on MV4-11 of 3%.

In the case of `Nc1ncnc(Oc2ccc(NC(=O)c3cccn(-c4ccc(F)cc4)c3=O)c(F)c2F)c1Cl` [Cmpd 13, N-(4-((6-amino-5-chloropyrimidin-4-yl)oxy)-2,3-difluorophenyl)-1-(4-fluorophenyl)-2-oxo-1,2-dihydropyridine-3-carboxamide], the remaining activity at 1 µM on AXL was found to be 67%; at MET it was 94%; at Mer, 91%; on TYRO3 it was 87%. Further, in the assay on FLT3-ITD, the “% Residual enzymatic activity” value was 74%. The compound further registered an activity at 1 µM in the assay with MV4-11 of 7%.

Turning to `Nc1ncnc(Oc2ccc(NC(=O)c3cccn(-c4ccc(F)cc4)c3=O)cc2Cl)c1Cl` [Cmpd 23, N-(4-((6-amino-5-chloropyrimidin-4-yl)oxy)-3-chlorophenyl)-1-(4-fluorophenyl)-2-oxo-1,2-dihydropyridine-3-carboxamide], the remaining activity at 1 µM was determined as 67% at AXL, 98% at MET, 95% on Mer and 63% on TYRO3. Also, the “% Residual enzymatic activity” value in the assay on FLT3-ITD is 51%. In the assay with MV4-11, this compound showed an activity at 1 µM of 1%.

Regarding `CCOc1ccn(-c2ccc(F)cc2)c(=O)c1C(=O)Nc1ccc(Oc2ncnc(N)c2Cl)c(F)c1` [Cmpd 2, N-(4-((6-amino-5-chloropyrimidin-4-yl)oxy)-3-fluorophenyl)-4-ethoxy-1-(4-fluorophenyl)-2-oxo-1,2-dihydropyridine-3-carboxamide], the remaining activity at 1 µM was determined as 2% on AXL; 2% on MET; 1% on Mer; 0% on TYRO3; 94% at CDK2E; 38% at CDK4D1. For the same compound, in the assay on FLT3-ITD, the “% Residual enzymatic activity” value is listed as 52%. In addition, in the assay with MV4-11, the activity at 1 µM turned out to be 15%.

(Values after patent US20230339889A1, “DERIVATIVES OF 2-OXO-N-(4-(PYRIMIDIN-4-YLOXY/THIO)PHENYL)-1,2-DIHYDROPYRIDINE-3-CARBOXAMIDE FOR USE AS PROTEIN KINASE INHIBITORS FOR THERAPY” (AUCENTRA THERAPEUTICS PTY LTD, priority 2020, published 2023).)
